Test results from US6444671B1, “Cyclic AMP-specific phosphodiesterase inhibitors” (ICOS Corporation, priority 1999, dated 2002).
Like-named read-outs stand apart in the source and are kept apart here.

Experiments:
recombinant human PDE4 [1] = system: T1, recombinant human PDE4; test: PDE4 inhibition, recombinant human PDE4, [32P]cAMP charcoal separation assay; assay type: biochemical
T1 construct: PDE4 IC50 (nM); other: recombinant human PDE4
Experimental: The compounds of structural formula (II) were tested for an ability to inhibit PDE4. The ability of a compound to inhibit PDE4 activity is related to the IC50 value for the compound, i.e., the concentration of inhibitor required for 50% inhibition of enzyme activity. The IC50 value for compounds of structural formula (II) were determined using recombinant human PDE4.
The production of recombinant human PDEs and the IC50 determinations can be accomplished by well-known methods in the art. Exemplary methods are described as follows:
Recombinant production of human PDE1B, PDE2, PDE4A, PDE4B, PDE4C, PDE4D, PDE5, and PDE7 was carried out similarly to that described in Example 7 of U.S. Pat. No. 5,702,936, incorporated herein by reference, except that the yeast transformation vector employed, which is derived from the basic ADH2 plasmid described in Price et al., Methods in Enzymology, 135, pp. 308-318 (1990), incorporated. yeast ADH2 promoter and terminator sequences and the Saccharomyces cerevisiae host was the protease-deficient strain BJ2-54 deposited on Aug. 31, 1998 with the American Type Culture Collection, Manassas, Va., under accession number ATCC 74465. Transformed host cells were grown in 2×SC-leu medium, pH 6.2, with trace metals, and vitamins. After 24 hours, YEP medium-containing glycerol was added to a final concentration of 2×YET/3% glycerol. Approximately 24 hr later, cells were harvested, washed, and stored at −70° C.
Phosphodiesterase activity of the preparations was determined as follows. PDE assays utilizing a charcoal separation technique were performed essentially as described in Loughney et al. (1996). In this assay, PDE activity converts [32P]cAMP or [32P]cGMP to the corresponding [32P]5′-AMP or [32P]5′-GMP in proportion to the amount of PDE activity present. The [32P]5′-AMP or [32P]5′-GMP then was quantitatively converted to free [32P]phosphate and unlabeled adenosine or guanosine by the action of snake venom 5′-nucleotidase. […] The assay was performed at 30° C. in a 100 μL reaction mixture containing (final concentrations) 40 mM Tris HCl (pH 8.0), 1 μM ZnSO4, 5 mM MgCl2, and 0.1 mg/mL bovine serum albumin (BSA) Alternatively, in assays assessing PDE1-specific activity, incubation mixtures further incorporated the use of 0.1 mM CaChe and 10 μg/mL calmodulin. PDE enzyme was present in quantities that yield<30% total hydrolysis of substrate (linear assay conditions). The assay was initiated by addition of substrate ([…] [32P]cAMP or cGMP), and the mixture was incubated for 12 minutes. […] After centrifugation (750×g for 3 minutes) to sediment the charcoal, a sample of the supernatant was taken for radioactivity determination in a scintillation counter and the PDE activity was calculated.

recombinant human PDE4 [2] = details: reported value, background section; read-out: IC50 with respect to inhibiting recombinant human PDE4; cited from earlier work
[3] = in vivo; cited from earlier work

| Compound | IC50 (recombinant human PDE4 [1]) | other results |
| --- | --- | --- |
| CCc1nn(C2CCCC2)c2cc([C@@H]3CN(Cc4ccccc4)C[C@@]3(C)C(C)O)ccc12 (stereo partly drawn) [Example 1, (1S)-1-[(3S,4S)-4-(1-Cyclopentyl-3-ethyl(1H-indazol-6-yl))-3-methyl-1-benzylpyrrolidin-3-yl]ethan-1-ol] | 316 nM |  |
| CCc1nn(C2CCCC2)c2cc([C@@H]3CN(Cc4ccccc4)C[C@@]3(C)C(C)O)ccc12 (stereo partly drawn) [Example 2, (1R)-1-[(3S,4S)-4-(1-Cyclopentyl-3-ethyl(1H-indazol-6-yl))-3-methyl-1-benzylpyrrolidin-3-yl]ethan-1-ol] | 87.6 nM |  |
| CCc1nn(C2CCCC2)c2cc([C@@H]3CN(Cc4ccccc4)C[C@@]3(C)CO)ccc12 [Example 3, [(3S,4S)-4-(1-Cyclopentyl-3-ethyl(1H-indazol-6-yl))-3-methyl-1-benzylpyrrolidin-3-yl]methan-1-ol] | 6.1 nM |  |
| CCc1nn(C2CCCC2)c2cc([C@@H]3CN(C(=O)OC)C[C@@]3(C)CO)ccc12 [Example 4, Methyl (3S,4S)-4-(1-cyclopentyl-3-ethyl(1H-indazol-6-yl))-3-(hydroxymethyl)-3-methyl Pyrrolidine Carboxylate] | 79.3 nM |  |
| COc1ccc(C2CNC(=O)C2)cc1OC1CCCC1 (stereo not shown) [Rolipram, rolipram] |  | IC50 (recombinant human PDE4 [2]): ~200 nM |
| COC(=O)N1CC(c2ccc(OC)c(OC3CCCC3)c2)C(C)(C(C)=O)C1 (stereo not shown) [formula (I)] |  | IC50 (recombinant human PDE4 [2]): ~2 nM |
| R-rolipram |  | Emetic potential relative to the (+)-enantiomer (S-rolipram) [3]: about ten-fold more emetic |
